Tests used:
lipoamide = compound: NC(=O)CCCCC1CCSS1 [lipoamide]; experiment: thermal stability z-score vs DMSO; higher = more thermally stabilized by treatment; conditions: HeLa, lipoamide concentration 100 µM
Procedure: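 Cellular thermal proteome profiling in HeLa cells. Cells were treated with 100 µM lipoamide for 1 h, with or without 1 mM arsenate for a further 1 h, then heated to ten temperatures (37-66.3 °C), and soluble protein was quantified by TMT mass spectrometry relative to 0.1% DMSO controls. The thermal stability score (sum of log2 fold changes minus the abundance score) was transformed to a z-score; mean of n = 3 experiments.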

potassium arsenate = compound: O=[As]([O-])(O)O.[K+] [potassium arsenate]; experiment: as above; conditions: HeLa; arsenate concentration 1 mM
Procedure: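 Cellular thermal proteome profiling in HeLa cells treated with 1 mM arsenate for 1 h (DMSO pretreatment), heated to ten temperatures (37-66.3 °C). Soluble protein was quantified by TMT mass spectrometry relative to DMSO controls; the thermal stability score was transformed to a z-score; mean of n = 3 experiments.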

[1] = arsenate co-treatment: 1 mM arsenate 1 h
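Also: each temperature applied for 3 min, abundance score taken as mean log2 fold change at the two lowest temperatures, z-score obtained by mean subtraction and division by SD.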

UniProt P49848, sequence (P49848 whole entry): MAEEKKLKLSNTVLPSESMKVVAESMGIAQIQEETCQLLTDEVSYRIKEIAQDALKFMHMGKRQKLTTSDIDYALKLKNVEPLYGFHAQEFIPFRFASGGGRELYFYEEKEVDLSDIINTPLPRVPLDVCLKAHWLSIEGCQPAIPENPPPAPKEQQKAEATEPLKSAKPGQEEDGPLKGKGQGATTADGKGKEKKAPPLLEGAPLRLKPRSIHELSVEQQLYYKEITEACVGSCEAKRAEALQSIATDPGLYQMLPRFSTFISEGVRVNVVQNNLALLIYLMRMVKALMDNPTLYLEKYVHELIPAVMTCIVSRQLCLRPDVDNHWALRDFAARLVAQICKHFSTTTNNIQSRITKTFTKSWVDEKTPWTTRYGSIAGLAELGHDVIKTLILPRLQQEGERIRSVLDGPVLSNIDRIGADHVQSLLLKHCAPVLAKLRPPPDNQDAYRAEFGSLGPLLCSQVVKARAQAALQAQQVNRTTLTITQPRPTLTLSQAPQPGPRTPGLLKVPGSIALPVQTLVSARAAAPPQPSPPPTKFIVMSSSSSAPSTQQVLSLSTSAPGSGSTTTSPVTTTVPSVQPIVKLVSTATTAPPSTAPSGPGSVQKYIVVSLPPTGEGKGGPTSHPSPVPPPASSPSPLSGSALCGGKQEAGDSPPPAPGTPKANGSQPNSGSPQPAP
UniProt Q8TBF4, sequence (Q8TBF4 whole entry): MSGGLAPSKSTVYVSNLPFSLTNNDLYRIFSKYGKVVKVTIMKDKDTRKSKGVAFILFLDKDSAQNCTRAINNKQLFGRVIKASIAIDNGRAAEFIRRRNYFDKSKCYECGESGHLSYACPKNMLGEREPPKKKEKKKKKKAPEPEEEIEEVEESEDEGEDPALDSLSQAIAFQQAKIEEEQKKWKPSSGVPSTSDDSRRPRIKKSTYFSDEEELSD
UniProt O60610, sequence (O60610 whole entry): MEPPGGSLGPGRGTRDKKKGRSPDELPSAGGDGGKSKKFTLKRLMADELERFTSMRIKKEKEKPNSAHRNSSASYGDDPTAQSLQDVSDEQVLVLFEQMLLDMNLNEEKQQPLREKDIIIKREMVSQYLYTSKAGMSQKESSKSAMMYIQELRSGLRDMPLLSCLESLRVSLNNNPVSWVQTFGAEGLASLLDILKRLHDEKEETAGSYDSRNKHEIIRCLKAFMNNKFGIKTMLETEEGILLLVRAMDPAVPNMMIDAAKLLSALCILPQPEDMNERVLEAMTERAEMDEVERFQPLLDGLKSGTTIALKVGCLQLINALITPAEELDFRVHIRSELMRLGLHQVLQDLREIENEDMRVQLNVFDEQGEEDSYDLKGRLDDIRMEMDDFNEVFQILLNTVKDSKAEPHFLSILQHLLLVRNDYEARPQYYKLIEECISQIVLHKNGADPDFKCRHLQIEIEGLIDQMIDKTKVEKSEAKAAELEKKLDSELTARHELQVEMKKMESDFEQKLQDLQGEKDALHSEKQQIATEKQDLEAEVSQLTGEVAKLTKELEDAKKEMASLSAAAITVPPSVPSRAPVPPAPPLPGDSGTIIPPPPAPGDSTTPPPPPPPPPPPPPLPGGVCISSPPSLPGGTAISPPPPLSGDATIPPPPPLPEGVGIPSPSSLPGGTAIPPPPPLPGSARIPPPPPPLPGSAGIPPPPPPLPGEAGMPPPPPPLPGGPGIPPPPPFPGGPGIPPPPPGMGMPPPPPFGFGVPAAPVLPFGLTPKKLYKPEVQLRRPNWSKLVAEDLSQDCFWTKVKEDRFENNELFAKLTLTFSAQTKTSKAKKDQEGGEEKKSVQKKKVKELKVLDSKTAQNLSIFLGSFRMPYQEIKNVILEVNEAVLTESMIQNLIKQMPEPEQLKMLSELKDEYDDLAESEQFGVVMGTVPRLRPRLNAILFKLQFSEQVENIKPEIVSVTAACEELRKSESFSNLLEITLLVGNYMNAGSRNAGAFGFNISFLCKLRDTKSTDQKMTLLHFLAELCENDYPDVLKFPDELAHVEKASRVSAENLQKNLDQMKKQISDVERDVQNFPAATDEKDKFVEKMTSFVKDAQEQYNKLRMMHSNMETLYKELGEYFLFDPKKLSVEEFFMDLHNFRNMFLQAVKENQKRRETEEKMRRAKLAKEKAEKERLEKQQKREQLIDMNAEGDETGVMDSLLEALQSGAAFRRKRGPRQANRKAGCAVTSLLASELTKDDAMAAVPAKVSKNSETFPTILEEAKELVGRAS
UniProt Q86WV6, sequence (Q86WV6 whole entry): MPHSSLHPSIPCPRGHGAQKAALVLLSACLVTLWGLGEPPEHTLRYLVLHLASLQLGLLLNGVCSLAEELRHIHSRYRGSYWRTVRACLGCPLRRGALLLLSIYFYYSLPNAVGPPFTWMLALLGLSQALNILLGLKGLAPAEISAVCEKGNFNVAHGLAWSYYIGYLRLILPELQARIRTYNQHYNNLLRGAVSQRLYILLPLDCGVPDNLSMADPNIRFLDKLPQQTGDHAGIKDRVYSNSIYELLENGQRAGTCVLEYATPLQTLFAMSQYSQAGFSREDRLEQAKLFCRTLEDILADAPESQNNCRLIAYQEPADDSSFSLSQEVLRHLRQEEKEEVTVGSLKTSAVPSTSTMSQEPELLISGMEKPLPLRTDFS
UniProt P41091, sequence (P41091 whole entry): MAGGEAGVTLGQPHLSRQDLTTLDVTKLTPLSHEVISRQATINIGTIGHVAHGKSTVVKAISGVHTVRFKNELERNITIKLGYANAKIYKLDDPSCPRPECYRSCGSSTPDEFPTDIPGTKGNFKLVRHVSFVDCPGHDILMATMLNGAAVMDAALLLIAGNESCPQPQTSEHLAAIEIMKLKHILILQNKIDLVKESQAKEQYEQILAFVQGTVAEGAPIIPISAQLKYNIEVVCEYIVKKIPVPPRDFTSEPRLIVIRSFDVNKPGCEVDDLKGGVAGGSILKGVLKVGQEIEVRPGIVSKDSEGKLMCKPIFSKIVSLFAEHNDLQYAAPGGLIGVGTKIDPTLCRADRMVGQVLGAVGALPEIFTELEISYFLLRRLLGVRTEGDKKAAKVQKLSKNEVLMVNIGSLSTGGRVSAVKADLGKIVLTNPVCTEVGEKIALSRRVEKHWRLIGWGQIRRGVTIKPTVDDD
UniProt Q7L8W6, sequence (Q7L8W6 whole entry): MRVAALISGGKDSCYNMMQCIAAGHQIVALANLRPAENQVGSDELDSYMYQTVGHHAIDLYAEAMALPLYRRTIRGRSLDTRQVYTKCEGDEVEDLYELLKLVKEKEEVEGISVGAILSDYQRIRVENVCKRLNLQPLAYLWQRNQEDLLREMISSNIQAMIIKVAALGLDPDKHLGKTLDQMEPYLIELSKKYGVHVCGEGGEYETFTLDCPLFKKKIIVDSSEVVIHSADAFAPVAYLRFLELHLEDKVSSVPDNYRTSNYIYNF
UniProt Q9HCG8, sequence (Q9HCG8 whole entry): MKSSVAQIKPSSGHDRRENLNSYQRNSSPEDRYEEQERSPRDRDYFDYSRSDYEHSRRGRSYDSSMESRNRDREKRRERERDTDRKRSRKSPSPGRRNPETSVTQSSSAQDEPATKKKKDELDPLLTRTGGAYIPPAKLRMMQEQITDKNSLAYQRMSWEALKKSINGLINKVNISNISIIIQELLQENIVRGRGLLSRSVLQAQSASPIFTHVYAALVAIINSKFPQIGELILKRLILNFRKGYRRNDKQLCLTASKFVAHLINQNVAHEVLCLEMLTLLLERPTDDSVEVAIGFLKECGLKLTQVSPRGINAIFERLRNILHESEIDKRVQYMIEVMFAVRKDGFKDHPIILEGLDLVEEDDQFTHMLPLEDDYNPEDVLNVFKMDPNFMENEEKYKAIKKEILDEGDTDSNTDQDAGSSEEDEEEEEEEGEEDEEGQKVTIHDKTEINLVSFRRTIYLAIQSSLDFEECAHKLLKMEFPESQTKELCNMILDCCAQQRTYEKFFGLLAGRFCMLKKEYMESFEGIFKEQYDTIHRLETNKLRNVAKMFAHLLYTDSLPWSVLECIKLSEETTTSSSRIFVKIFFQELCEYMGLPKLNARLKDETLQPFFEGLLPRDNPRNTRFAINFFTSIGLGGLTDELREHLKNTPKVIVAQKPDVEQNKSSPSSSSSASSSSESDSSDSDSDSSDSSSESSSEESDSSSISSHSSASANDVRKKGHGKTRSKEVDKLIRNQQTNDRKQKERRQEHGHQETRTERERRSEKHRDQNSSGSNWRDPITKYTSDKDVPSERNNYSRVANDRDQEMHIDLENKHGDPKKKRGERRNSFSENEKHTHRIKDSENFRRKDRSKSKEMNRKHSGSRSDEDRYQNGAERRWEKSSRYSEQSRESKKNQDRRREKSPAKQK
UniProt Q969V5, sequence (Q969V5 whole entry): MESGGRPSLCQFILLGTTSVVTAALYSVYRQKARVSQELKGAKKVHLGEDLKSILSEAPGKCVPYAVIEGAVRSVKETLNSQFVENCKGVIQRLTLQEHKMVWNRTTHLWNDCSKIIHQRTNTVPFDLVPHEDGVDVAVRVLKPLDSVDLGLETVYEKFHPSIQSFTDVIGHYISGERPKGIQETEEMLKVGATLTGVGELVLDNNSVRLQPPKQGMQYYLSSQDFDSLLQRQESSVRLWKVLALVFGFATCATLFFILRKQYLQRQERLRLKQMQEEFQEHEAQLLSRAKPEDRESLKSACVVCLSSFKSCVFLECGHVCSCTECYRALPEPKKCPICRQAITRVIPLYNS
UniProt Q9NZ43, sequence (Q9NZ43 whole entry): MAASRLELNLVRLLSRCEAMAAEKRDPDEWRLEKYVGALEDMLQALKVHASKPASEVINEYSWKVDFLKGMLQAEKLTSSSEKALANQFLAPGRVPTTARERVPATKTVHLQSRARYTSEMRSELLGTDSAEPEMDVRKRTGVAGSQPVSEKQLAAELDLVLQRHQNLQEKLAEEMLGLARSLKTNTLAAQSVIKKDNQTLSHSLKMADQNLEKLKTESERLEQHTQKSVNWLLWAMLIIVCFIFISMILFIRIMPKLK
UniProt Q9BQB6, sequence (Q9BQB6 whole entry): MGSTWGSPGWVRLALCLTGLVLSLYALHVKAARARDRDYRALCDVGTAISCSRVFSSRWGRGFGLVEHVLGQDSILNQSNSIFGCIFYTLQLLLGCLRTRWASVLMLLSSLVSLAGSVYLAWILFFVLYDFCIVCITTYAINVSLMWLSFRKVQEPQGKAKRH

Row | Target | thermal stability z-score (lipoamide; [1]) | thermal stability z-score (lipoamide; arsenate co-treatment: none) | thermal stability z-score (potassium arsenate)
1 | SH3BP4 (UniProt Q9P0V3) | 0.0947 | 0.0993 | -0.0405
2 | TAF6 (UniProt P49848) | -0.0822 | -0.089 | 0.318
3 | MICALL1 (UniProt Q8N3F8) | -0.217 | 0.212 | -0.602
4 | TCERG1 (UniProt O14776) | 0.7 | 0.361 | -0.0887
5 | MYO19 (UniProt Q96H55) | 0.0427 | 0.347 | -0.139
6 | DIAPH1 (UniProt O60610) | 0.466 | 0.801 | -0.58
7 | TMEM173 (UniProt Q86WV6) | 0.0822 | -0.0914 | -0.0763
8 | PDIA6 (UniProt Q15084) | -2.44 | -1.84 | 0.475
9 | SMARCA2 (UniProt P51531) | -0.0738 | -0.0901 | -0.174
10 | TREX1 (UniProt Q9NSU2) | -0.5 | -0.0932 | -2.07
11 | TTC33 (UniProt Q6PID6) | 0.242 | 0.0666 | -0.664
12 | VKORC1 (UniProt Q9BQB6) | -1.71 | -1.59 | 0.856
13 | IDH1 (UniProt O75874) | 0.0654 | -0.257 | -0.596
14 | DPH6 (UniProt Q7L8W6) | -0.187 | -0.152 | -0.722
15 | RNF213 (UniProt Q63HN8) | -0.473 | -0.111 | -0.0363
16 | GRB10 (UniProt Q13322) | -0.159 | -0.12 | -0.636
17 | RBM25 (UniProt P49756) | -0.0516 | 0.34 | -0.454
18 | TBCE (UniProt Q15813) | -0.969 | -0.354 | -0.0811

Row | Target | thermal stability z-score (lipoamide; [1]) | thermal stability z-score (lipoamide; arsenate co-treatment: none) | thermal stability z-score (potassium arsenate)
19 | BAG5 (UniProt Q9UL15) | 0.228 | 0.437 | -0.198
20 | RNF10 (UniProt Q8N5U6) | -0.0188 | -0.286 | -0.23
21 | PIGS (UniProt Q96S52) | -2.47 | -2.43 | 0.44
22 | SESN2 (UniProt P58004) | -0.134 | 0.162 | -0.132
23 | GSR (UniProt P00390) | 0.558 | 0.347 | -0.106
24 | EIF2S3 (UniProt P41091) | 0.159 | -0.567 | 1.34
25 | NUDT21 (UniProt O43809) | 1.57 | 0.0301 | -0.633
26 | MED4 (UniProt Q9NPJ6) | 0.794 | 0.377 | -0.174
27 | ADAM9 (UniProt Q13443) | -0.535 | -0.428 | 0.397
28 | USE1 (UniProt Q9NZ43) | 0.872 | 0.37 | 1.13
29 | UCKL1 (UniProt Q9NWZ5) | -0.158 | -0.483 | 0.0426
30 | ZCRB1 (UniProt Q8TBF4) | 0.506 | 0.194 | 0.155
31 | AHCY (UniProt P23526) | 0.488 | 0.146 | -1.82
32 | FUT11 (UniProt Q495W5) | -1.71 | -0.756 | 0.00651
33 | MUL1 (UniProt Q969V5) | -0.0704 | -0.261 | -2.82
34 | CWC22 (UniProt Q9HCG8) | -0.0873 | 0.0387 | -0.263
35 | YPEL5 (UniProt P62699) | -0.116 | -0.259 | -0.117

— the supplement of paper PMC12463676, “Small-molecule dissolution of stress granules by redox modulation benefits ALS models” (Nature Chemical Biology, 2025)
